From ChEMBL document CHEMBL3137667, “[Drug-induced liver injury; fourteenth updated edition of the bibliographic database of liver injuries and related drugs]” (Gastroenterol Clin Biol, 2004)

Experiments:
[1] = Highest frequency of moderate liver toxicity observed during clinical trials, expressed as a percentage. [column '% BIOL' in source]; settings: human
[2] = Highest frequency of acute liver toxicity observed during clinical trials, expressed as a percentage. [column '% AIGUE' in source]; settings: human
[3] = Presence of at least one case with successful reintroduction. [column 'REINT' in source]; settings: human
[4] = Comments (NB not yet translated). [column 'COMMENTAIRES' in source]; settings: human
[5] = Times to onset, minimal and maximal, observed in the indexed observations. [column 'DELAI' in source]; settings: human
[6] = Proposed mechanism(s) of liver damage. [column 'MEC' in source]; settings: human
[7] = human, serum
[8] = human, serum; remark: listed apart in the source
[9] = human
[10] = human; remark: listed apart in the source
[11] = human; remark: listed apart in the source
[12] = human, serum, 4383 h
[13] = human; remark: listed apart in the source
[14] = human; remark: listed apart in the source
[15] = human; remark: listed apart in the source
[16] = human; remark: listed apart in the source
[17] = human; remark: listed apart in the source
[18] = human; remark: listed apart in the source
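Throughout, for Hepatotoxicity (association with vascular disease): count of indexed literature references reporting vascular liver injury in humans, e.g. peliosis hepatitis, hepatic veno-occlusive disease or Budd-Chiari syndrome.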
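Throughout, for Hepatotoxicity (benign tumour): value is a count of indexed literature references citing a benign tumour confirmed by histopathology.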
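Throughout, for Hepatotoxicity (choleostasis): human cholestatic liver injury, shown by histopathology or by peak ALT or AST elevation over alkaline phosphatase ratio below 2, value counts indexed literature reports.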
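Throughout, for Hepatotoxicity (chronic liver disease): chronic liver injury confirmed by histopathology or persistently raised serum aminotransferase activity beyond 6 months, value given as the count of indexed literature references.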
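Throughout, for Hepatotoxicity (cirrhosis): value is a count of indexed literature references reporting cirrhosis confirmed by histopathology.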
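Throughout, for Hepatotoxicity (cytolytic): human cytolytic liver injury, shown by histopathology or by a ratio above 5 of peak ALT or AST elevation to alkaline phosphatase elevation, value counts indexed references.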
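Throughout, for Hepatotoxicity (granulomatous hepatitis): value is a count of indexed literature references reporting granulomatous liver disease confirmed by histopathology.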
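Throughout, for Hepatotoxicity (malignant tumour): malignant tumour confirmed by histopathology, value gives the count of indexed literature references reporting it.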
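Throughout, for Hepatotoxicity (severe hepatitis): human clinical data: severe hepatitis, meaning potentially life-threatening liver failure or clinically observed cases, the value counts how many indexed literature references report it.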
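Throughout, for Hepatotoxicity (steatosis): steatosis confirmed by histopathology, value is the count of indexed references.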

For `CC(=O)OCC1=C(C(=O)O)N2C(=O)[C@@H](NC(=O)CSc3ccncc3)[C@H]2SC1` [CEPHAPIRIN], the “Hepatotoxicity (moderate)” value [1] was 0%, the “Hepatotoxicity (acute)” value [2] was 0% and the “Hepatotoxicity (successful reintroduction)” value [3] was “yes”. For the same compound, the “Hepatotoxicity (comment)” value [4] was “RC/CEFALOTINE”, the “Hepatotoxicity (time to onset)” value [5] was 1 week and the “Hepatotoxicity (mechanism)” value [6] was “Allergic”. For the same compound, the “Hepatotoxicity (moderate)” value [7] was 0, the “Hepatotoxicity (acute)” value [8] was 1 and the “Hepatotoxicity (cytolytic)” value [9] was 0. The “Hepatotoxicity (choleostasis)” value [10] was 1, the “Hepatotoxicity (severe hepatitis)” value [11] was 0 and the “Hepatotoxicity (chronic liver disease)” value [12] was 0. The “Hepatotoxicity (cirrhosis)” value [13] was 0, the “Hepatotoxicity (granulomatous hepatitis)” value [14] was 0 and the “Hepatotoxicity (association with vascular disease)” value [15] was 0. The “Hepatotoxicity (steatosis)” value [16] was 0, the “Hepatotoxicity (malignant tumour)” value [17] was 0 and the “Hepatotoxicity (benign tumour)” value [18] was 0.

In the case of `CCCNCC(O)COc1ccccc1C(=O)CCc1ccccc1` (stereo not drawn) [PROPAFENONE], the “Hepatotoxicity (moderate)” value [1] was 10.6%, the “Hepatotoxicity (acute)” value [2] was 7.7% and the “Hepatotoxicity (successful reintroduction)” value [3] was “yes”. The “Hepatotoxicity (comment)” value [4] was “CHOLANGITE PRICHOLANGITE AC_ANTI-N”, the “Hepatotoxicity (time to onset)” value [5] was 6 days - 16 months and the “Hepatotoxicity (mechanism)” value [6] was “Allergic”. For the same compound, the “Hepatotoxicity (moderate)” value [7] was 7, the “Hepatotoxicity (acute)” value [8] was 9 and the “Hepatotoxicity (cytolytic)” value [9] was 1. For the same compound, the “Hepatotoxicity (choleostasis)” value [10] was 6, the “Hepatotoxicity (severe hepatitis)” value [11] was 0 and the “Hepatotoxicity (chronic liver disease)” value [12] was 0. The “Hepatotoxicity (cirrhosis)” value [13] was 0, the “Hepatotoxicity (granulomatous hepatitis)” value [14] was 0 and the “Hepatotoxicity (association with vascular disease)” value [15] was 0. For the same compound, the “Hepatotoxicity (steatosis)” value [16] was 0, the “Hepatotoxicity (malignant tumour)” value [17] was 0 and the “Hepatotoxicity (benign tumour)” value [18] was 0.

With `CCC[N+]12[C@H](O)[C@@H](CC)[C@@H]3C[C@H]1[C@@H]1N(C)c4ccccc4[C@]14C[C@H]2C3[C@H]4O` (stereo partly drawn) the “Hepatotoxicity (moderate)” value [1] was 0%, the “Hepatotoxicity (acute)” value [2] was 0% and the “Hepatotoxicity (successful reintroduction)” value [3] was “yes”. For the same compound, the “Hepatotoxicity (comment)” value [4] was “RC/QUINIDINE CHOLESTASE_PROLONGEE CHOLANGITE”, the “Hepatotoxicity (time to onset)” value [5] was 3 days - 4 months and the “Hepatotoxicity (mechanism)” value [6] was “Allergic”. The “Hepatotoxicity (moderate)” value [7] was 0, the “Hepatotoxicity (acute)” value [8] was 15 and the “Hepatotoxicity (cytolytic)” value [9] was 3. For the same compound, the “Hepatotoxicity (choleostasis)” value [10] was 14, the “Hepatotoxicity (severe hepatitis)” value [11] was 0 and the “Hepatotoxicity (chronic liver disease)” value [12] was 2. For the same compound, the “Hepatotoxicity (cirrhosis)” value [13] was 0, the “Hepatotoxicity (granulomatous hepatitis)” value [14] was 2 and the “Hepatotoxicity (association with vascular disease)” value [15] was 0. The “Hepatotoxicity (steatosis)” value [16] was 0, the “Hepatotoxicity (malignant tumour)” value [17] was 0 and the “Hepatotoxicity (benign tumour)” value [18] was 0.

In the case of `O=C(O)COCCN1CCN(C(c2ccccc2)c2ccc(Cl)cc2)CC1` (stereo not drawn) [CETIRIZINE], the “Hepatotoxicity (moderate)” value ([1]; Liver) was 3.8%, the “Hepatotoxicity (acute)” value ([2]; Liver) was 0% and the “Hepatotoxicity (successful reintroduction)” value [3] was “yes”. The “Hepatotoxicity (comment)” value [4] was “AC_ANTI-MFR1”, the “Hepatotoxicity (time to onset)” value [5] was 1 day - 2 years and the “Hepatotoxicity (mechanism)” value [6] was “Allergic”. The “Hepatotoxicity (moderate)” value [7] was 1, the “Hepatotoxicity (acute)” value [8] was 5 and the “Hepatotoxicity (cytolytic)” value [9] was 4. The “Hepatotoxicity (choleostasis)” value [10] was 1, the “Hepatotoxicity (severe hepatitis)” value ([11]; Liver) was 0 and the “Hepatotoxicity (chronic liver disease)” value [12] was 0. The “Hepatotoxicity (cirrhosis)” value [13] was 0, the “Hepatotoxicity (granulomatous hepatitis)” value [14] was 0 and the “Hepatotoxicity (association with vascular disease)” value [15] was 0. For the same compound, the “Hepatotoxicity (steatosis)” value [16] was 0, the “Hepatotoxicity (malignant tumour)” value [17] was 0 and the “Hepatotoxicity (benign tumour)” value [18] was 0.

For `CC1(C)S[C@@H]2[C@H](NC(=O)[C@H](N)c3ccc(O)cc3)C(=O)N2[C@H]1C(=O)O.O=C(O)[C@H]1/C(=C/CO)O[C@@H]2CC(=O)N21`, the “Hepatotoxicity (moderate)” value [1] was 15%, the “Hepatotoxicity (acute)” value [2] was 0.3% and the “Hepatotoxicity (successful reintroduction)” value [3] was “yes”. For the same compound, the “Hepatotoxicity (comment)” value [4] was “CHOLANGITE #CBP AC_ANTI-N RC/ERYTHROMYCINE”, the “Hepatotoxicity (time to onset)” value [5] was under 1 day - 15 weeks and the “Hepatotoxicity (mechanism)” value [6] was “Allergic”. For the same compound, the “Hepatotoxicity (moderate)” value [7] was 15, the “Hepatotoxicity (acute)” value [8] was 74 and the “Hepatotoxicity (cytolytic)” value [9] was 21. For the same compound, the “Hepatotoxicity (choleostasis)” value [10] was 61, the “Hepatotoxicity (severe hepatitis)” value [11] was 8 and the “Hepatotoxicity (chronic liver disease)” value [12] was 0. For the same compound, the “Hepatotoxicity (cirrhosis)” value [13] was 1, the “Hepatotoxicity (granulomatous hepatitis)” value [14] was 6 and the “Hepatotoxicity (association with vascular disease)” value [15] was 0. For the same compound, the “Hepatotoxicity (steatosis)” value [16] was 7, the “Hepatotoxicity (malignant tumour)” value [17] was 0 and the “Hepatotoxicity (benign tumour)” value [18] was 0.

In the case of `CCc1oc2ccccc2c1C(=O)c1ccc(O)cc1` [BENZARONE], the “Hepatotoxicity (moderate)” value [1] was 0%, the “Hepatotoxicity (acute)” value [2] was 0% and the “Hepatotoxicity (successful reintroduction)” value [3] was “yes”. The “Hepatotoxicity (comment)” value [4] was “AC_ANTI-ML/-N”, the “Hepatotoxicity (time to onset)” value [5] was 2 weeks - 2 years and the “Hepatotoxicity (mechanism)” value [6] was “Allergic”. For the same compound, the “Hepatotoxicity (moderate)” value [7] was 0, the “Hepatotoxicity (acute)” value [8] was 5 and the “Hepatotoxicity (cytolytic)” value [9] was 3. The “Hepatotoxicity (choleostasis)” value [10] was 0, the “Hepatotoxicity (severe hepatitis)” value [11] was 2 and the “Hepatotoxicity (chronic liver disease)” value [12] was 3. The “Hepatotoxicity (cirrhosis)” value [13] was 1, the “Hepatotoxicity (granulomatous hepatitis)” value [14] was 0 and the “Hepatotoxicity (association with vascular disease)” value [15] was 0. The “Hepatotoxicity (steatosis)” value [16] was 0, the “Hepatotoxicity (malignant tumour)” value [17] was 0 and the “Hepatotoxicity (benign tumour)” value [18] was 0.

In the case of `O=C(O)c1cccs1` [THIOPHENE CARBOXYLIC ACID], the “Hepatotoxicity (moderate)” value [1] was 0%, the “Hepatotoxicity (acute)” value [2] was 0% and the “Hepatotoxicity (successful reintroduction)” value [3] was “yes”. The “Hepatotoxicity (comment)” value [4] was “AC_ANTI-ML”, the “Hepatotoxicity (time to onset)” value [5] was 3 days - 3 weeks and the “Hepatotoxicity (mechanism)” value [6] was “Allergic”. For the same compound, the “Hepatotoxicity (moderate)” value [7] was 0, the “Hepatotoxicity (acute)” value [8] was 3 and the “Hepatotoxicity (cytolytic)” value [9] was 3. For the same compound, the “Hepatotoxicity (choleostasis)” value [10] was 0, the “Hepatotoxicity (severe hepatitis)” value [11] was 0 and the “Hepatotoxicity (chronic liver disease)” value [12] was 0. The “Hepatotoxicity (cirrhosis)” value [13] was 0, the “Hepatotoxicity (granulomatous hepatitis)” value [14] was 0 and the “Hepatotoxicity (association with vascular disease)” value [15] was 0. For the same compound, the “Hepatotoxicity (steatosis)” value [16] was 0, the “Hepatotoxicity (malignant tumour)” value [17] was 0 and the “Hepatotoxicity (benign tumour)” value [18] was 0.

In the case of `CCCCOCC(CN1C(=O)N(CC(COCCCC)OC(N)=O)C(=O)C(CC)(c2ccccc2)C1=O)OC(N)=O` (stereo not drawn) [DIFEBARBAMATE], the “Hepatotoxicity (moderate)” value [1] was 0%, the “Hepatotoxicity (acute)” value [2] was 0% and the “Hepatotoxicity (successful reintroduction)” value [3] was “yes”. For the same compound, the “Hepatotoxicity (comment)” value [4] was “AC_ANTI-N/-ML I/PAROXETINE”, the “Hepatotoxicity (time to onset)” value [5] was 8 days - 15 months and the “Hepatotoxicity (mechanism)” value [6] was “Allergic”. The “Hepatotoxicity (moderate)” value [7] was 2, the “Hepatotoxicity (acute)” value [8] was 9 and the “Hepatotoxicity (cytolytic)” value [9] was 9. The “Hepatotoxicity (choleostasis)” value [10] was 1, the “Hepatotoxicity (severe hepatitis)” value [11] was 5 and the “Hepatotoxicity (chronic liver disease)” value [12] was 0. The “Hepatotoxicity (cirrhosis)” value [13] was 0, the “Hepatotoxicity (granulomatous hepatitis)” value [14] was 1 and the “Hepatotoxicity (association with vascular disease)” value [15] was 0. For the same compound, the “Hepatotoxicity (steatosis)” value [16] was 1, the “Hepatotoxicity (malignant tumour)” value [17] was 0 and the “Hepatotoxicity (benign tumour)” value [18] was 0.

With `CC(C)Cc1ccc(C(C)C(=O)O)cc1` (stereo not drawn) [IBUPROFEN] the “Hepatotoxicity (moderate)” value ([1]; Liver) was 16%, the “Hepatotoxicity (acute)” value ([2]; Liver) was 0% and the “Hepatotoxicity (successful reintroduction)” value [3] was “yes”. The “Hepatotoxicity (comment)” value [4] was “RC/DICLOFENAC CHOLESTASE_PROLONGEE DUCTOPENIE REACTIVATION_HSV6”, the “Hepatotoxicity (time to onset)” value [5] was 1 day - 4 months and the “Hepatotoxicity (mechanism)” value [6] was “Allergic, Overdose”. The “Hepatotoxicity (moderate)” value [7] was 10, the “Hepatotoxicity (acute)” value [8] was 20 and the “Hepatotoxicity (cytolytic)” value [9] was 14. For the same compound, the “Hepatotoxicity (choleostasis)” value [10] was 6, the “Hepatotoxicity (severe hepatitis)” value ([11]; Liver) was 6 and the “Hepatotoxicity (chronic liver disease)” value [12] was 1. For the same compound, the “Hepatotoxicity (cirrhosis)” value [13] was 1, the “Hepatotoxicity (granulomatous hepatitis)” value [14] was 0 and the “Hepatotoxicity (association with vascular disease)” value [15] was 0. For the same compound, the “Hepatotoxicity (steatosis)” value [16] was 1, the “Hepatotoxicity (malignant tumour)” value [17] was 0 and the “Hepatotoxicity (benign tumour)” value [18] was 0.

For `CC[C@H]1[C@@H]2C[C@H]3[C@@H]4N(C)c5ccccc5[C@]45C[C@@H]([C@@H]2[C@H]5O)N3[C@@H]1O` [AJMALINE], the “Hepatotoxicity (moderate)” value [1] was 0%, the “Hepatotoxicity (acute)” value [2] was 0.1% and the “Hepatotoxicity (successful reintroduction)” value [3] was “yes”. The “Hepatotoxicity (comment)” value [4] was “CHOLESTASE_PROLONGEE RC/AMIODARONE”, the “Hepatotoxicity (time to onset)” value [5] was 1 day - 4 years and the “Hepatotoxicity (mechanism)” value [6] was “Allergic”. The “Hepatotoxicity (moderate)” value [7] was 2, the “Hepatotoxicity (acute)” value [8] was 29 and the “Hepatotoxicity (cytolytic)” value [9] was 6. For the same compound, the “Hepatotoxicity (choleostasis)” value [10] was 28, the “Hepatotoxicity (severe hepatitis)” value [11] was 0 and the “Hepatotoxicity (chronic liver disease)” value [12] was 1. For the same compound, the “Hepatotoxicity (cirrhosis)” value [13] was 1, the “Hepatotoxicity (granulomatous hepatitis)” value [14] was 0 and the “Hepatotoxicity (association with vascular disease)” value [15] was 0. For the same compound, the “Hepatotoxicity (steatosis)” value [16] was 0, the “Hepatotoxicity (malignant tumour)” value [17] was 0 and the “Hepatotoxicity (benign tumour)” value [18] was 0.

With `CO[C@H]1/C=C/O[C@@]2(C)Oc3c(C)c(O)c4c(O)c(cc(O)c4c3C2=O)NC(=O)/C(C)=C\C=C\[C@H](C)[C@H](O)[C@@H](C)[C@@H](O)[C@@H](C)[C@H](OC(C)=O)[C@@H]1C` [RIFAMYCIN] the “Hepatotoxicity (moderate)” value [1] was 10%, the “Hepatotoxicity (acute)” value [2] was 2.3% and the “Hepatotoxicity (successful reintroduction)” value [3] was “yes”. For the same compound, the “Hepatotoxicity (comment)” value [4] was “CHOLANGITE I/ISONIAZIDE”, the “Hepatotoxicity (time to onset)” value [5] was 6 hours - 13 days and the “Hepatotoxicity (mechanism)” value [6] was “Allergic”. The “Hepatotoxicity (moderate)” value [7] was 5, the “Hepatotoxicity (acute)” value [8] was 3 and the “Hepatotoxicity (cytolytic)” value [9] was 2. The “Hepatotoxicity (choleostasis)” value [10] was 2, the “Hepatotoxicity (severe hepatitis)” value [11] was 0 and the “Hepatotoxicity (chronic liver disease)” value [12] was 0. The “Hepatotoxicity (cirrhosis)” value [13] was 0, the “Hepatotoxicity (granulomatous hepatitis)” value [14] was 0 and the “Hepatotoxicity (association with vascular disease)” value [15] was 0. For the same compound, the “Hepatotoxicity (steatosis)” value [16] was 0, the “Hepatotoxicity (malignant tumour)” value [17] was 0 and the “Hepatotoxicity (benign tumour)” value [18] was 0.
